From patent publication US9120762B2, “Salts of bicyclo-substituted pyrazolon azo derivatives, preparation method and use thereof” (Jiangsu Hengrui Medicine Co., Ltd., priority 2009, dated 2015)
Values after ≈ are worked out from the molar mass of the structure shown. Where two headings read alike, the source gives them in different places.

Key:
[1] = Solubility assay in water, 0.1% hydrochloric acid and methanol; format: physicochemical
Experimental: The solubility was characterized by:
The term “very soluble” refers to that 1 g (mL) of solute can be dissolved in less than 1 mL of solvent;
The term “freely soluble” refers to that 1 g (mL) of solute can be dissolved in from 1 mL to 10 mL, not including 10 mL of solvent;
The term “soluble” refers to that 1 g (mL) of solute can be dissolved in from 10 mL to 30 mL, not including 30 mL of solvent;
The term “sparingly soluble” refers to that 1g (mL) of solute can be dissolved in from 30 mL to 100 mL, not including 100 mL of solvent;
The term “slightly soluble” refers to that 1g (mL) of solute can be dissolved in from 100 mL to 1000 mL, not including 1000 mL of solvent;
The term “very slightly soluble” refers to that 1g (mL) of solute can be dissolved in from 1000 mL to 10000 mL, not including 10000 mL of solvent;
The term “practically insoluble or insoluble” refers to that 1g (mL) of solute cannot be dissolved completely in 10000 mL of solvent.

human TPOR = molecular target: T1, human TPOR (Homo sapiens, UniProt P40238); test: Proliferation effect on BAF3-TPOR cell (CCK-8); format: cell-based; conditions: rate relative to rhTPO positive control
T1 construct: host or cells: BaF3 (murine pro-B cells), stably transfected, G418-selected
T1 sequence (P40238 26-635): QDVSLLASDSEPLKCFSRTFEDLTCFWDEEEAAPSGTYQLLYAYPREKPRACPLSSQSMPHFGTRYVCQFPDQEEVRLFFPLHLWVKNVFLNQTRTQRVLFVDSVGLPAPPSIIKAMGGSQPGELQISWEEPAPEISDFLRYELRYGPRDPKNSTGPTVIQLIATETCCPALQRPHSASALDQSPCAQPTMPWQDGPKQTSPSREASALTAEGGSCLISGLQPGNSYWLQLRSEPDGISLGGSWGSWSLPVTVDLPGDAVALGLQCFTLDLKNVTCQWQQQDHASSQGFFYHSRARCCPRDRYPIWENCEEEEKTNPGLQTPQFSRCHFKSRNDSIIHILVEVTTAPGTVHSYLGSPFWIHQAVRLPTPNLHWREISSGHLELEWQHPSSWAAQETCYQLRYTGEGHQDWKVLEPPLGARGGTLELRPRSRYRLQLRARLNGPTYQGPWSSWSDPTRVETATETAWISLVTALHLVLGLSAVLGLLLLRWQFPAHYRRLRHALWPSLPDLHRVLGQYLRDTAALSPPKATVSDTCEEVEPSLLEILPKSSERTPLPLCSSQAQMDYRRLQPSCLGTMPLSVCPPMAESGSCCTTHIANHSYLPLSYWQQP
Experimental: (1) Plasmid constructs: based on the TPO receptor (TPOR) sequence information from Entrez (Gene ID: 4325, Refseq: NM_005373), dual-site mutation was performed on EX-B0010-M02 plasmid by using QuikChange® Multi Site Directed Mutagenesis Kit (Stratagene). The sequence of primers containing multi-sites mutation was designed as follows: […]
The E. coli DH5α competent cells were transformed with mutated plasmid, and positive colonies were picked up through ampicillin selection. The mutation result was confirmed by sequence analysis.
(2) BAF3-TPOR stable transfected cell line: the following method was used to construct the BaF3 cell which stably over-expressed functional human TPOR. The successfully mutated EX-B0010-M02 plasmid ([…]) which expressed human TPOR and screening gene neomycin was transfected into wild-type BaF3 cells (1×10^7) by electroporation at 250V for 18 ms using an electric pulse generator (Electro Square Porator ECM830, BTX Division of Genetronic, Inc. US). The stable transfected cells BAF3-TPOR were selected with G418 (Gibco, US), then incubated in RPMI1640 medium plus 10% FBS (Gibco, US), […] G418, 5 ng/mL, rmIL-3 (Chemicon, US).
(1) Washing cells by centrifugation: a suitable amount of cell suspension was centrifuged at 1000 rpm for 5 minutes, and the supernatant was discarded. 10 mL of cell culture media without IL-3 was added. Then the resulting cell suspension was centrifuged at 1000 rpm for 5 minutes, and the supernatant was discarded.
(2) 1 mL of cell culture media without IL-3 was added to beat upon them to equality, and the number of a suitable amount of cell suspension was counted after dilution.
(3) According to the result of the cell counting, a cell suspension in a concentration of 100,000 cell/mL was prepared.
(4) 100 μL of cell suspension was transferred to each well of 96-well culture plate, and there were 3 parallel wells, that is, there were a blank control group (B), a negative control group (N), a positive control group of TPO (P) and a test compound group (S).
(5) The test compound was dissolved in DMSO to prepare a 10 mM stock solution, and then the solution was diluted with RPMI 1640 medium into a series of test samples at different concentration: 30 μM, 10 μM, 3 μM, 1 μM, 0.3 μM, 0.1 μM, 0.03 μM, 0.01 μM, 0.003 μM, 0.001 μM.
(6) 10 μL of test compound solution was transferred to each well respectively; 1 μL of rhTPO (10 ng/mL) was added to positive control well.
(7) The plates were incubated in an incubator at 5% CO2 and 37° C. for 24 hours.
(8) After incubation, 10 μL of CCK-8 solution was added to each well and the plates were incubated in the incubator for another 24 hours.
(9) OD value was detected at 450 nm by VICTORS (Perkin Elmer 1420-120) plate reader.
(1) The proliferation rate was calculated as follows: Rate=[(S−B)/(P−B)]*100%
S: OD value of wells which contain test compound.
B: OD value of blank control wells
P: OD value of positive control wells
(2) The EC50 value was calculated by Origin 7.0 software.

[2] = Pharmacokinetics assay in rats; format: in vivo, SD rats; conditions: SD rats, intragastric, 50 mg/Kg (as free acid); for Vd/F / AUC / CL/F / half-life / MRT / Cmax / Tmax: both sexes, rat, po; for Vd/F: read-out: Apparent Distribution Volume Vz/F; for AUC: read-out: Area Under Curve AUC; for CL/F: read-out: Clearance CL/F (converted); for half-life: read-out: Half-Life t½ (converted); for MRT: read-out: Mean Residence Time MRT; for Cmax: read-out: Plasma Conc. Cmax; for Tmax: read-out: Time to peak Tmax
Experimental: The compounds of the present disclosure were administrated intragastrically to rats to determine the drug concentration in plasma at different time points by HPLC-UV. The pharmacokinetic behavior of the compounds of the present disclosure was studied and evaluated in rats. […] Healthy adult SD rats, male and female in half, were purchased from SINO-BRITSH SIPPR/BK LAB.ANIMAL LTD., Colo., License number: SCXK (Shanghai) 2003-0002 The test compound was diluted with 1% sodium carboxymethyl cellulose to 5 mg/mL (calculated as the free acid form) of suspension before use. Healthy adult SD rats, male and female in half, were divided into 23 groups. […] The plasma samples were stored at −20° C. until analysis. The rats were fed 2 hours after administration. […] Then the mixture was mixed for 3 minute using a vortexer and centrifuged for 10 minutes at 13,500 rpm. 40 μL of the supernatant was analyzed by HPLC-UV. The compartmental model of pharmacokinetics was fitted for the test compounds and the major pharmacokinetic parameters were calculated in which Cmax and tmax were the actually measured values.

[3] = 0.1% hydrochloric acid, simulated gastric fluid, 0.1% hydrochloric acid, read-out: solubility
[4] = methanol, organic solvent or mixture, methanol, read-out: solubility

| Structure (SMILES) | solubility [1, 3] | solubility ([1]; methanol) | solubility ([1]; water) | EC50 (human TPOR) | Area Under Curve AUC ([2]; 50 mg/kg) | Clearance CL/F ([2]; 50 mg/kg) | Half-Life t½ ([2]; 50 mg/kg) | Mean Residence Time MRT ([2]; 50 mg/kg) | Plasma Conc. Cmax ([2]; 50 mg/kg) | Time to peak Tmax ([2]; 50 mg/kg) | solubility [1, 4] | solubility ([1]; water, read-out: solubility) | Vd/F ([2]; SD, plasma, 50 mg/kg) | AUC ([2]; SD, plasma, 50 mg/kg) | half-life ([2]; SD, plasma, 50 mg/kg) | MRT ([2]; SD, plasma, 50 mg/kg) | Cmax ([2]; SD, plasma, 50 mg/kg) | Tmax ([2]; SD, plasma, 50 mg/kg) | other results |
| --- | --- | --- | --- | --- | --- | --- | --- | --- | --- | --- | --- | --- | --- | --- | --- | --- | --- | --- | --- |
| CC1=NN(c2ccc3c(c2)CCC3)C(=O)/C1=N\Nc1cccc(-c2cccc(C(=O)O)c2)c1O [Example 1j, (Z)-2′-hydroxy-3′-[N′-(1-indan-5-yl-3-methyl-5-carbonyl-1,5-dihydro-pyrazol-4-ylidene)-hydrazino]-biphenyl-3-carboxylic acid] | < 1 µg/mL | <1 µg/mL | <1 µg/mL | 200 nM | 131000 ± 47000 ng·h/mL | 0.817 ± 0.583 mL/min/kg | 4.21 ± 1.86 h | 3.89 ± 1.78 h | 29050 ± 11440 ng/mL | 4.00 ± 1.41 h |  |  |  |  |  |  |  |  |  |
| CC1=NN(c2ccc3c(c2)C(C)(C)CC3)C(=O)/C1=N\Nc1cccc(-c2ccc(C(=O)O)o2)c1O.NCCO.NCCO [Example 4, (Z)-5-(3-{N′-[1-(3,3-dimethyl-indan-5-yl)-3-methyl-5-oxo-1,5-dihydro-pyrazol-4-ylidene]-hydrazino}-2-hydroxy-phenyl)-furan-2-carboxylic acid bis-(ethanolamine)] | 24 µg/mL |  |  | 25 nM |  |  |  |  |  |  | 19000 µg/mL | 2900 µg/mL | 58.1 ± 47.7 L/kg | 19000 ± 12600 ng·h/mL | 27 ± 31.5 h | 38.3 ± 36.5 h | 2320 ± 1800 ng/mL | 2.25 ± 2.47 h | CL/F ([2]; SD, plasma, 50 mg/kg): 40.3 mL/min/kg |
| CC1=NN(c2ccc3c(c2)C(C)(C)CC3)C(=O)/C1=N\Nc1cccc(-c2ccc(C(=O)O)o2)c1O [Example 4h, (Z)-5-(3-{N′-[1-(3,3-dimethyl-indan-5-yl)-3-methyl-5-oxo-1,5-dihydro-pyrazol-4-ylidene]-hydrazino}-2-hydroxy-phenyl)-furan-2-carboxylic acid] | < 1 µg/mL | <1 µg/mL |  | 32 nM | 9500 ± 8300 ng·h/mL | 54.3 ± 32.2 mL/min/kg | 19.8 ± 16.4 h | 31.7 ± 24.6 h | 1290 ± 380 ng/mL |  |  | < 1 µg/mL |  |  |  |  |  | 2.5 ± 1 h |  |
| CC1=NN(c2ccc3c(c2)C(C)(C)CC3)C(=O)/C1=N\Nc1cccc(-c2ccc(C(=O)O)o2)c1O [Example 6, (Z)-5-(3-{N′-[1-(3,3-dimethyl-indan-5-yl)-3-methyl-5-oxo-1,5-dihydro-pyrazol-4-ylidene]-hydrazino}-2-hydroxy-phenyl)-furan-2-carboxylic acid bis-(piperazine)] |  | 3009 µg/mL (≈ 6370 µM) | 1 µg/mL (≈ 2.12 µM) | 36 nM | 175000 ± 41000 ng·h/mL | 5 ± 1.4 mL/min/kg | 45.0 ± 70.3 h | 60.4 ± 90.2 h | 13000 ± 6500 ng/mL | 2.5 ± 1.0 h |  |  |  |  |  |  |  |  | solubility ([1]; 0.1% hydrochloric acid): <1 µg/mL |
| CC1=NN(c2ccc3c(c2)CCCC3)C(=O)/C1=N\Nc1cccc(-c2ccc(C(=O)[O-])o2)c1[O-].[Na+].[Na+] [Example 14, (Z)-5-(2-hydroxy-3-{N′-[3-methyl-5-oxo-1-(5,6,7,8-tetrahydro-naphthalen-2-yl)-1,5-dihydro-pyrazol-4-ylidene]-hydrazino}-phenyl)-furan-2-carboxylic acid disodium salt] | < 1 µg/mL |  |  | 19 nM |  |  |  |  |  |  | 3720 µg/mL | 1880 µg/mL | 9.54 ± 8.03 L/kg | 132000 ± 189000 ng·h/mL | 4.72 ± 2.82 h | 7.2 ± 2.13 h | 17800 ± 22600 ng/mL | 5.25 ± 1.5 h | CL/F ([2]; in vivo): 40 mL/min/kg |
| CC1=NN(c2ccc3c(c2)CCC3)C(=O)/C1=N\Nc1cccc(-c2ccc(C(=O)O)o2)c1O [Example 16a, (Z)-5-{2-hydroxy-3-[N′-(1-indan-5-yl-3-methyl-5-oxo-1,5-dihydro-pyrazol-4-ylidene)-hydrazino]-phenyl}-furan-2-carboxylic acid] | < 1 µg/mL | <1 µg/mL | <1 µg/mL | 100 nM | 15000 ± 17200 ng·h/mL | 49.7 ± 45.8 mL/min/kg | 1.82 ± 0.68 h |  | 6810 ± 6230 ng/mL |  |  |  |  |  |  | 4.03 ± 2.55 h |  | 2.75 ± 0.96 h |  |
